Experimental data published in patent US7879795B2, “Enhancement of tigecycline potency using efflux pump inhibitors” (Mpex Pharmaceuticals, Inc., priority 2004, dated 2011).

Key:
Enterobacter cloacae 25 = test: Antibiotic MIC with fixed concentration of compound 21, Enterobacter cloacae 25; type: cell-based
[1] = system: PAM 1626, Four pumps non-functional; test: Tigecycline potentiation checkerboard assay, PAM 1626; type: cell-based, P. aeruginosa; set-up: Tigecycline MIC in the presence of Compound 21: unit not given here; conditions: PAM 1626
Description: (§1) The ability of compound 21 to increase susceptibility to tigecycline was also assessed. The tigecycline potentiating activity of compound 21 was assessed by the checkerboard assay (Antimicrobial Combinations, Antibiotics in Laboratory Medicine, ed. Victor Lorian, M.D., Fourth edition, 1996, pp 333-338, which is incorporated herein by reference in its entirety) using a broth micro-dilution method performed as recommended by the CSLI (Clinical and Laboratory Standards Institute, formerly NCCLS) guidelines (National Committee for Clinical Laboratory Standards 2003. Methods for Dilution Antimicrobial Susceptibility Tests for Bacteria That Grow Aerobically—Sixth Edition; Approved Standard. NCCLS Document M7-A6, Vol 20 No. 2). In this assay, multiple dilutions of the two drugs, compound 21 and tigecycline, were tested alone and in combination, at concentrations equal to, above and below their respective minimal inhibitory concentrations (MICs). […] The stock solution was further diluted in Mueller Hinton Broth (MHB). Stock solutions were stored at −80° C.
(§2) The checkerboard assay was performed in microtiter plates. Tigecycline was diluted in the x axis, each column containing a single concentration of tigecycline. Compound 21 was diluted in the y axis, each row containing an equal concentration of the EPI. […] The assay was performed in MHB with a final bacterial inoculum of 5×10^5 CFU/ml (from an early-log phase culture). The microtiter plates were incubated for 20 hours at 35° C. and then read using a microtiter plate reader (Molecular Devices) at 650 nm, as well as by visual observation using a microtiter plate-reading mirror.

Citrobacter freundii 13 = test: Antibiotic MIC with fixed concentration of compound 21, Citrobacter freundii 13; type: cell-based
Description: (§3) To further characterize the clinical potential of tigecycline/EPI combinations, the microbiological activity of tigecycline in combination with compound 21 was investigated using clinical isolates of P. aeruginosa and other gram-negative bacteria. In several experiments, described below, the impact of a fixed concentration of compound 21 (2.5 μg/ml) on susceptibility to tigecycline was determined.
(§4) The impact of compound 21 on the activity of tigecycline against representative members of Enterobacteriacaea was also tested.

Klebsiella pneumonia 79 = test: Antibiotic MIC with fixed concentration of compound 21, Klebsiella pneumonia 79; type: cell-based
Description: as §3, §4

[2] = system: PAM 1723, MexAB-OprM over-expressed, ΔMexCD-OprJ ΔMexEF-OprN; test: microbe, parasite or virus in culture; type: cell-based, P. aeruginosa; set-up: Tigecycline MIC in the presence of Compound 21: unit not given here; conditions: PAM 1723
Description: as §1, §2

[3] = system: PAM 1323, mexZ, MexXY-OprM over-expressed, MexAB-OprM low level; test: microbe, parasite or virus in culture; type: cell-based, P. aeruginosa; set-up: Tigecycline MIC in the presence of Compound 21: unit not given here; conditions: PAM 1323
Description: as §1, §2

[4] = system: PAM 2466, mexR1, MexAB-OprM and MexXY-OprM over-expressed; test: microbe, parasite or virus in culture; type: cell-based, P. aeruginosa; set-up: Tigecycline MIC in the presence of Compound 21: unit not given here; conditions: PAM 2466
Description: as §1, §2

[5] = system: PAM 1738, MexCD-OprJ over-expressed, ΔMexAB-OprM ΔMexEF-OprN; test: microbe, parasite or virus in culture; type: cell-based, P. aeruginosa; set-up: Tigecycline MIC in the presence of Compound 21: unit not given here; conditions: PAM 1738
Description: as §1, §2

Klebsiella pneumonia 73 = test: Antibiotic MIC with fixed concentration of compound 21, Klebsiella pneumonia 73; type: cell-based
Description: as §3, §4

[6] = system: Enterobacteriaceae, Acinetobacter, Burkholderia, Stenotrphomonas, Staphylococcus; conditions: Example 86, written in present tense
PAM1723 = conditions: Table 3
Description: Stability in rat and human serum was also evaluated using a bioassay. 320 μg/ml of the test compound was treated with 50% serum for 4 hours.
Bioassays as described in Example 62 and Example 65 were used to evaluate the stability of various compounds in serum and rabbit kidney homogenates.

[7] = Acute toxicity, minimal lethal dose after IV bolus in mice; type: in vivo, mouse; conditions: IV bolus into tail vein, lethal for at least one of three mice
Description: Acute toxicity was measured as minimal lethal dose (MLD). MLD is defined as a minimal concentration of a compound that has lethal effect for at least one mouse from the group of three mice after IV bolus injection into the mouse tail vein.

[8] = Tissue levels after 5 day repeated dosing in rat; type: in vivo; conditions: 20 mg/kg twice daily for 5 days, 6 hours after last dose
Description: The decreased tissue accumulation of compound 3 vis-a-vis 1 was confirmed in a multi-dose experiment. Rats received 20 mg/kg of either compound twice daily for 5 days. Animal were sacrificed 6 hours after the last dose and levels of compounds in kidneys, liver and lung were determined. FIG. 14 depicts the measured tissue levels. Approximately 100-fold, 60-fold, and 10-fold less compound 3 accumulated in kidney, liver and lung respectively, as compared to compound 1.

[9] = azithromycin MIC with compound 21
[10] = levofloxacin MIC with compound 21 at […]
[11] = tigecycline MIC with compound 21 at […]

With `NCCC[C@H](N)C(=O)N[C@H](Cc1ccc(C(F)(F)F)cc1)C(=O)Nc1cnc2ccccc2c1` [Compound 21, 2-(S),5-Diamino-pentanoic acid [1-(R)-(quinolin-3-ylcarbamoyl)-2-(4-trifluoromethyl-phenyl)-ethyl]amide] the “Azi + EPI (MIC)” value (Enterobacter cloacae 25; [9]) was “≦0.125”, the “Levo + EPI at […] (MIC)” value (Enterobacter cloacae 25; [10]) was 0.5 and the “Tig + EPI at […] (MIC)” value (Enterobacter cloacae 25; [11]) was 0.5. For the same compound, the “Tigecycline MIC in the presence of Compound 21” value (from here on “Tigecycline MIC in the presence”) ([1]; Compound 21 0.625 μg/ml) was 0.25, the “Tigecycline MIC in the presence” value ([1]; Compound 21 1.25 μg/ml) was 0.25 and the “Tigecycline MIC in the presence” value ([1]; Compound 21 5 μg/ml) was 0.25. The “Tigecycline MIC in the presence” value ([1]; Compound 21 10 μg/ml) was 0.25, the “Tigecycline MIC in the presence” value ([1]; Compound 21 20 μg/ml) was 0.5 and the “Tigecycline MIC in the presence” value ([1]; Compound 21 […]) was 0.25. The “Azi + EPI (MIC)” value (Citrobacter freundii 13; [9]) was “≦0.125”, the “Levo + EPI at […] (MIC)” value (Citrobacter freundii 13; [10]) was 8 and the “Tig + EPI at […] (MIC)” value (Citrobacter freundii 13; [11]) was 0.125. For the same compound, the “Azi + EPI (MIC)” value (Klebsiella pneumonia 79; [9]) was 0.25, the “Levo + EPI at […] (MIC)” value (Klebsiella pneumonia 79; [10]) was 4 and the “Tig + EPI at […] (MIC)” value (Klebsiella pneumonia 79; [11]) was 0.25. For the same compound, the “Tigecycline MIC in the presence” value ([2]; Compound 21 0.625 μg/ml) was 4, the “Tigecycline MIC in the presence” value ([2]; Compound 21 1.25 μg/ml) was 2 and the “Tigecycline MIC in the presence” value ([2]; Compound 21 5 μg/ml) was 0.5. For the same compound, the “Tigecycline MIC in the presence” value ([2]; Compound 21 10 μg/ml) was 0.5, the “Tigecycline MIC in the presence” value ([2]; Compound 21 20 μg/ml) was 0.5 and the “Tigecycline MIC in the presence” value ([2]; Compound 21 40 μg/ml) was 0.5. The “Tigecycline MIC in the presence” value ([2]; Compound 21 […]) was 0.5, the “Tigecycline MIC in the presence” value ([3]; Compound 21 0.625 μg/ml) was 2 and the “Tigecycline MIC in the presence” value ([3]; Compound 21 1.25 μg/ml) was 1. The “Tigecycline MIC in the presence” value ([3]; Compound 21 5 μg/ml) was 0.5, the “Tigecycline MIC in the presence” value ([3]; Compound 21 10 μg/ml) was 0.5 and the “Tigecycline MIC in the presence” value ([3]; Compound 21 20 μg/ml) was 0.5. The “Tigecycline MIC in the presence” value ([3]; Compound 21 40 μg/ml) was 0.5, the “Tigecycline MIC in the presence” value ([3]; Compound 21 […]) was 0.5 and the “Tigecycline MIC in the presence” value ([4]; Compound 21 0.625 μg/ml) was 4. The “Tigecycline MIC in the presence” value ([4]; Compound 21 1.25 μg/ml) was 2, the “Tigecycline MIC in the presence” value ([4]; Compound 21 5 μg/ml) was 0.5 and the “Tigecycline MIC in the presence” value ([4]; Compound 21 10 μg/ml) was 0.5. The “Tigecycline MIC in the presence” value ([4]; Compound 21 20 μg/ml) was 0.5, the “Tigecycline MIC in the presence” value ([4]; Compound 21 40 μg/ml) was 0.5 and the “Tigecycline MIC in the presence” value ([4]; Compound 21 […]) was 0.5. For the same compound, the “Tigecycline MIC in the presence” value ([5]; Compound 21 0.625 μg/ml) was 1, the “Tigecycline MIC in the presence” value ([5]; Compound 21 1.25 μg/ml) was 0.5 and the “Tigecycline MIC in the presence” value ([5]; Compound 21 5 μg/ml) was 0.25. For the same compound, the “Tigecycline MIC in the presence” value ([5]; Compound 21 10 μg/ml) was 0.25, the “Tigecycline MIC in the presence” value ([5]; Compound 21 20 μg/ml) was 0.25 and the “Tigecycline MIC in the presence” value ([5]; Compound 21 40 μg/ml) was 0.25. The “Tigecycline MIC in the presence” value ([5]; Compound 21 […]) was 0.25, the “Azi + EPI (MIC)” value (Klebsiella pneumonia 73; [9]) was “≦0.125” and the “Levo + EPI at […] (MIC)” value (Klebsiella pneumonia 73; [10]) was 4. The “Tig + EPI at […] (MIC)” value (Klebsiella pneumonia 73; [11]) was 0.125 and the “effect on tigecycline resistance and emergence of resistance” value [6] was “reduces tigecycline resistance and emergence of resistance”.

With `NCCC[C@H](N)C(=O)N[C@H](CCc1ccccc1)C(=O)Nc1cnc2ccccc2c1` [Compound 3, 2-(S),5-Diamino-pentanoic acid [3-phenyl-1-(R)-(quinolin-3-ylcarbamoyl)-propyl]-amide] the “EPI MPC8 after 4 hours at 37° C., Frosen Human serum” value (PAM1723; 50% human serum) was 5, the “EPI MPC8 after 4 hours at 37° C., Frozen Rat serum” value (PAM1723; 50% rat serum) was 5 and the “EPI MPC8 after 4 hours at 37° C., Saline” value (PAM1723; saline) was 5. The “MLD (minimal lethal dose)” value [7] was 25 mg/kg, the “less compound 3 accumulated as compared to compound 1” value ([8]; rat kidney) was “Approximately 100 fold” and the “less compound 3 accumulated as compared to compound 1” value ([8]; rat liver) was roughly 60 fold. For the same compound, the “less compound 3 accumulated as compared to compound 1” value ([8]; rat lung) was roughly 10 fold.
